From patent US20160200769A1, “Compound, Transitmycin, Effective Against Bacterial and Viral Pathogens” (INDIAN COUNCIL OF MEDICAL RESEARCH, priority 2013, published 2016)
*1 amine or outer side, *2 acyl side, *3 side chain or, on linkers, in order; H or OH if unused. Where a SMILES comes first, the peptide text is derived from it. Bridges are numbered along the chain shown (N, C = ends). Roman numbers before positions name the chains, in order. [ ]: non-standard residue; d: D form. Actinocin(1to9) = Cc1c2oc3c(C)ccc(C(=O)[*:2])c3nc-2c(C(=O)[*:1])c(N)c1=O; Pro(4-oxo) = O=C1CN[C@H](C(=O)O)C1; NMeV = CN[C@H](C(=O)O)C(C)C; Sar = CNCC(=O)O

Key:
[1] = system: dormant tubercle bacilli grown under hypoxic condition; experiment: Activity against latent TB bacilli, Wayne's dormant model; assay type: cell-based, M. tuberculosis
[2] = system: M. tuberculosis SHRE sensitive; experiment: microbe, parasite or virus in culture; assay type: cell-based; conditions: Mycobacterium tuberculosis
[3] = system: M. tuberculosis H37Rv; experiment: microbe, parasite or virus in culture; assay type: cell-based; conditions: Mycobacterium tuberculosis
[4] = system: Escherichia coli (NCIM2931); experiment: MIC by micro dilution broth assay with resazurin; assay type: cell-based; conditions: 18 hours at 37° C.
Protocol: (§1) The minimum inhibitory concentration (MIC) of the compound of formula (I) is determined for other bacterial pathogens Staphylococcus aureus (NCIM5021), Pseudomonas aeruginosa (NClM5029) and Escherichia coli (NCIM2931). The minimum inhibitory concentration (MIC) is determined by micro dilution broth assay method with modifications using resazurin as an indicator as follows:
(§2) (i) dissolving the compound of formula (I) in absolute ethanol to a concentration of 10 mg/ml;
(§3) (ii) Serially diluting the compound and adding to successive wells in a 96 well microtiter plate and incubating with the bacterial pathogens for 18 hours at 37° C.;
(§4) (iii) maintaining the growth and sterility controls during the experiment;
(§5) (iv) adding 10 μl of 0.01% resazurin solution and incubating for 2 hours;
(§6) (v) visually assessing the color change.
(§7) Blue colour indicates inhibition of growth, indicating MIC.

[5] = system: Pseudomonas aeruginosa (NCIM5029); experiment: MIC by micro dilution broth assay with resazurin; assay type: cell-based; conditions: 18 hours at 37° C.
Protocol: as §1, §2, §3, §4, §5, §6, §7

[6] = system: Staphylococcus aureus (NCIM5021); experiment: MIC by micro dilution broth assay with resazurin; assay type: cell-based; conditions: 18 hours at 37° C.
Protocol: as §1, §2, §3, §4, §5, §6, §7

[7] = system: HIV IIIB (Clade B virus); experiment: Anti-HIV activity of purified compound, p24 antigen in infected PBMC; assay type: cell-based, HIV-1; conditions: day 7, 0 μg/ml control 2394
Protocol: (§8) Virus production by transfection of 293T cells: 293T cells are plated at a concentration of 1×10^6 cells/ml in a 100 mm culture dish and grown at 37° C. in a CO2 incubator for 24 hours. Cells are transfected with 20 μg of HIV IIIB plasmid DNA using the mammalian cell transfection kit (Millipore). The culture supernatant is collected at 48 hours post transfection, clarified by centrifugation and stored in liquid nitrogen.
(§9) Titration of virus stock: Seven serial four-fold dilutions of virus stock, ranging from 1:[…] are titrated in triplicate in a 96-well flat bottomed tissue culture plate containing 200,000 cells/well (PBMC stimulated with PHA for 72 hours). After 7 days of culture at 37° C. in a CO2 incubator, the titration assay is terminated and the culture supernatants are tested for HIV-1 p24 antigen. The TCID50 (tissue culture infection dose50) is calculated employing the Spearman-Kaber method.
(§10) Testing for anti-HIV activity of compound: HIV IIIB is used as a representative Glade B virus and Indie-Cl as a representative Glade C virus. Healthy donor PBMC (Peripheral blood mononuclear cells) activated through PHA (Phyto heme agglutinin) stimulation for 72 hours are incubated with 100TCID50 of the virus per 1×10^6 cells for 2 hours at 37° C. The cells are washed twice to get rid of the unadsorbed virus and plated at a concentration of 200,000 cells/well in a 96-well tissue culture plate. Varying concentrations of the compound are added to triplicate wells (concentrations tested were 0.001 μg/ml, 001 μg/ml, 0.1 μg/ml, 1.0 μg/ml, 5.0 μg/ml and 10.0 tg/ml). Control cultures are set up without addition of the compound. Cultures are maintained for 7 days at 37° C. in a CO2 incubator. On day 7, culture supernatants are tested for HIV-1 p24 antigen.
(§11) Measurement of HIV-1 p24 antigen: HIV-1 p24 antigen production is measured as an indirect measure of viral replication in the culture supernatants using the Alliance HIV-1 p24 ELISA kit (Perkin Elmer, USA).
(§12) Virus growth is .determined, by measuring p24 concentrations in culture supernatants.

[8] = system: Indie-Cl (Clade C virus); experiment: as above; assay type: cell-based, HIV-1; conditions: day 7, 0 μg/ml control 406
Protocol: as §8, §9, §10, §11, §12

[9] = system: M. tuberculosis (XDR); experiment: microbe, parasite or virus in culture; assay type: cell-based; conditions: Mycobacterium tuberculosis
[10] = system: 3T3 cells; experiment: Cytotoxicity, MTT assay; assay type: cell-based; parameters: unit of the concentration uncertain; conditions: for Average % Viability: 3T3 cells, MTT
Protocol: Cytotoxicity of the compound is measured by adopting MTT assay (Mosmann, 1983) as follows:
(i) preparing, the sample by inoculating 3T3 cells in 5×10^4 concentrations in each well of 96 well microtiter plates with in Dulbecco's modified Eagles medium (DMEM) containing 10% FBS, 100 U/ml Penicillin 100 µg/ml Streptomycin;
(ii) incubating for a period of 2 days at a temperature of 37° C. in 5% CO2 atmosphere (Astec Japan); […]
(iv) Discarding the growth medium in the plates and washing the wells with phosphate buffer saline (PBS);
(v) Adding MTT in growth medium at a final concentration of 0.5 mg/ml and incubating for 4 hours;
(vi) solublizing the insoluble formazan crystals' with 0.04N HCl in isopropylalcohol and measuring the absorption on a Spectramax Plus384 spectrophotometer (Molecular Devices, Calif., USA) at 570 nm.
For each of the samples evaluated, the test is performed in triplicate. The control cells are treated with PBS. Overnight experiment is done with DMSO alone as a control.

[11] = system: biofilm of M. tuberculosis isolates (SHRE sensitive, MDR and XDR); experiment: Inhibitory activity against MTB biofilm; assay type: cell-based
[12] = Solubility of purified compound in solvents; assay type: physicochemical
Protocol: Solubility of purified compound is tested by adding the purified compound in 100 jxl of solvents such as methanol, chloroform, dichloromethane, diethyl ether, ethyl acetate and n-hexane. Melting point of the purified compound is tested using Tempo instrument and is determined as 240-242° C.

## NNC(=O)c1ccncc1 [INH, reference compound]
[1]; negative control
  Effect of standard drug against latent tubercle bacilli: resistant

## Cc1c2oc3c(C)ccc(C(=O)N[C@@H]4C(=O)N[C@@H](C(C)C)C(=O)N5CCC[C@H]5C(=O)N(C)CC(=O)N(C)[C@@H](C(C)C)C(=O)O[C@@H]4C)c3nc-2c(C(=O)N[C@@H]2C(=O)N[C@@H](C(C)C)C(=O)N3CC(=O)C[C@H]3C(=O)N(C)CC(=O)N(C)[C@@H](C(C)C)C(=O)O[C@@H]2C)c(N)c1=O [compound of formula (I), Transitmycin] (I: TV[Pro(4-oxo)][Sar][NMeV] / II: TVP[Sar][NMeV]; ester I:1-I:C, II:1-II:C; linker I:N-II:N via Actinocin(1to9))
[2]
  MIC: 1.5 mg/L
[3]
  MIC: < 1 mg/L
[4]
  MIC: 17.4 mg/L
[5]
  MIC: 17.4 mg/L
[6]
  MIC: 139 mg/L
[7]; compound 0.001 μg/ml
  P24 antigen: 1603 pg/mL
[7]; compound 0.01 μg/ml
  P24 antigen: 337 pg/mL
[7]; compound 0.1 μg/ml
  P24 antigen: 163 pg/mL
[7]; compound 1 μg/ml
  P24 antigen: 144 pg/mL
[7]; compound 5 μg/ml
  P24 antigen: 147 pg/mL
[7]; compound 10 μg/ml
  P24 antigen: 163 pg/mL
[8]; compound 0.001 μg/ml
  P24 antigen: 390 pg/mL
[8]; compound 0.01 μg/ml
  P24 antigen: 310 pg/mL
[8]; compound 0.1 μg/ml
  P24 antigen: 344 pg/mL
[8]; compound 1 μg/ml
  P24 antigen: 302 pg/mL
[8]; compound 5 μg/ml
  P24 antigen: 295 pg/mL
[8]; compound 10 μg/ml
  P24 antigen: 296 pg/mL
[9]
  MIC: 6.25 mg/L
[10]; 10 (unit uncertain)
  Average % Viability: 93.00%
[10]; 25 (unit uncertain)
  Average % Viability: 86.01%
[10]; 50 (unit uncertain)
  Average % Viability: 73.88%
[10]; 100 (unit uncertain)
  Average % Viability: 66.13%
[10]; even at 100 (unit uncertain) concentration
  Cytotoxic activity: very poor cytotoxic activity
[1]
  CFU in M. tuberculosis cultures compared with CFU without the compound: Reduction in the CFU
[11]; 100 μg/ml, 37° C., 5 weeks
  Biofilm formation: no, biofilm formation
[11]; at the end of 2 months, […]
  Viable colonies (CFU) after treatment of wells: no viable colonies
[12]; Chloroform, Dichloromethane, Ethyl acetate, Methanol, Ethanol, Acetonitrile, DMSO, water
  Solubility: Souble
[12]; Hexane
  Solubility: Insoluble
